Reference: paper PMC5789271, “Absorption and Metabolism of Phenolics from Digests of Polyphenol-Rich Potato Extracts Using the Caco-2/HepG2 Co-Culture System” (Foods, 2018)
Several values for one entry are separate records, joined by “and”; a condition that tells them apart may be missing. Equal entries are not always repeated. Entries after “also recorded” stand apart in the source; their conditions may differ.

Columns and labels:
HepG2 cells = test: HepG2 cell metabolism bioassay (basolateral chamber, further 3 h); details: for Fold increase of basolateral concentration after HepG2 incubation: 3 h with HepG2 cells, relative to initial basolateral value
Protocol: Cells were incubated at 37 °C with 5% CO2 and 90% humidity and were monitored daily.
During this time, the medium was changed every other day. Before starting the treatments, the integrity of the monolayer was checked by measuring the transepithelial electrical resistance (TEER). […] Caco-2 monolayers having reached a TEER of 250 ohm/cm^2 or greater were used for the transport experiment [29]. […] Medium (500 µL) containing digesta of PRPE was added to the apical side of the wells and incubated for up to 2 h. […] Samples were taken from the receiver well after 2 and 5 h. […] All samples were centrifuged at 2000× g for 15 min and the supernatants were stored at −20 °C for further analysis by LC-MS.
After thawing, samples were vortexed and filtered using 25 mm syringe filters (0.45 µm, MCE, Fisher Scientific, Ottawa, ON, Canada) and transferred to HPLC vials for LC-MS analysis. […] Phenolic compounds and metabolites were eluted using a gradient of solvent A (10 mM formic acid, pH 3.5) and B (5 mM ammonium formate solution in 100% methanol), starting with 5% B, increasing to 30% B in 5 min, 70% B in 7 min, and 100% B at 9 min. This condition was maintained for 3 min. A solvent flow rate of 1.0 mL/min was used and 20 µL of sample was injected into the LC system. […] The analyses were performed in both positive and negative modes and the data was acquired over a mass range of m/z 100–1000. […] The data were acquired and processed using Agilent Mass Hunter software version B.04.00. […] The relative abundance of the compounds was calculated relative to the quantification of benzoic acid as the reference peak, as benzoic acid was present in all the cellular compartments at the same concentration at all time points.

Caco-2 cell monolayer = system: Caco-2 cell monolayer; set-up: method as in PMID 12784628; details: cited from earlier work
Caco-2 cells = test: Caco-2 cell transport bioassay (Caco-2/HepG2 co-culture, 2 h); assay type: in vitro ADME, human; set-up: Percentage of Control Value at 0 h, A (2 h) / Percentage of Control Value at 0 h, B (2 h): concentration or dose not given beside the values; details: for Percentage of Digesta Value, A (2 h) / Percentage of Digesta Value, B (2 h): PRPE digesta 10% (v/v); for Percentage of Digesta Value, A (2 h) / Percentage of Control Value at 0 h, A (2 h): apical chamber after 2 h; for Percentage of Digesta Value, B (2 h) / Percentage of Control Value at 0 h, B (2 h): basolateral chamber after 2 h; for Percentage of Control Value at 0 h, A (2 h) / Percentage of Control Value at 0 h, B (2 h): control digesta
[1] = system: human intestinal microbial ecosystem (colonic microbiota); test: Simulated digestion of PRPE in the dynamic multi-reactor GI model, LC-MS phenolic profile of pooled colonic digesta; assay type: in vitro ADME; details: pooled digesta of three colonic vessels, 24 h; further: key: (+) present; (T) trace amount
Excerpt: PRPE was subjected to in vitro digestion by the GI model as described previously in detail. Briefly, the model was composed of five double-jacketed vessels representing the stomach, the small intestine, the ascending colon, the transverse colon, and the descending colon. The model was fully computer controlled. The pH was automatically controlled by addition of 0.2 M HCl and 0.5 M NaOH solution upon a change in pH in the vessels to simulate the in vivo conditions in the different segments of the human gastrointestinal tract. The temperature was kept at 37 °C and anaerobic conditions were maintained in the fermentation vessels by flushing nitrogen gas for 20 min into the airspace every day. The experiment was started after a 2-week stabilization period in which fecal slurry, obtained from five healthy volunteers with no history of GI disease or antibiotic use in the previous six months, were inoculated into the last three vessels. After the 2-week stabilization period, 130 g PRPE was dissolved in the GI food mixture, which was composed of the following ingredients: arabinolactan, pectin, xylan, starch, glucose, yeast extracts, peptone, mucin, and cysteine powders—a composition previously developed by Molly et al. (1993). The GI food mixture was stored at 4 °C during the study. Samples were collected from all three colonic vessels before and 24 h after addition of PRPE to the GI digestion model. Each digestion was carried out in triplicate. Samples were centrifuged at 1000× g and stored at −80 °C for later analysis by liquid chromatography–mass spectrometry (LC-MS) and for the cell culture experiments.
The samples that were collected from the last three colonic vessels of the gut model after 24 h digestion were pooled after each experiment and prepared according to the method described previously. The samples were centrifuged at 36,000× g, 4 °C for 2 h. The supernatant was collected and the pH was neutralized to pH 7 before being filter sterilized with a 25 mm syringe filter (0.2 µm, MCE, Fisher Scientific, Ottawa, ON, Canada) and stored at −80 °C until used for the Caco-2/HepG2 cell experiments. Samples collected before the addition of PRPE were considered as the controls.
This condition was maintained for 3 min.

[2] = system: Caco-2 and HT29-MTX cells; set-up: method as in PMID 18154874; details: 1-h co-culture of Caco-2 and HT29-MTX cells; cited from earlier work
[3] = PRPE digesta, basolateral chamber after 3 h with HepG2 cells alone (t = 5 h), relative to basolateral value at 2 h
[4] = control digesta, basolateral chamber after 3 h with HepG2 cells (t = 5 h)
[5] = listed as 3-hydroxyphenylacetic acid

Row | SMILES | Fold increase of basolateral concentration after HepG2 incubation (HepG2 cells; PRPE digesta) | Percentage of Basolateral Value, B (5 h) (HepG2 cells; [3]) | Percentage of Digesta Value, A (2 h) (Caco-2 cells) | Percentage of Digesta Value, B (2 h) (Caco-2 cells) | Presence after human simulated intestinal digestion of PRPE [1] | Percentage of Basolateral Value, B (5 h) (HepG2 cells; [4]) | Percentage of Control Value at 0 h, A (2 h) (Caco-2 cells) | Percentage of Control Value at 0 h, B (2 h) (Caco-2 cells) | other results
1 | COc1cc(/C=C/C(=O)O)ccc1O [Ferulic acid, (E)-3-(4-Hydroxy-3-methoxy-phenyl)prop-2-enoic acid] | 1.6 fold | 166% | 90% | 11% | + |  |  |  | Percentage of Basolateral Value, B (5 h) (HepG2 cells; PRPE digesta, basolateral chamber after 3 h with HepG2 cells alone (t = 5 h), relative to basolateral value at 2 h, listed as ferulic acid): 160–370%; Percentage transported to the basolateral side of the Caco-2 cell monolayer (Caco-2 cell monolayer): 3.42%; Percentage of Digesta Value, B (2 h) (Caco-2 cells; listed as ferulic acid): 10–15%
2 | O=C(O)c1ccccc1 [Benzoic acid] |  | + | + | + | + | + | + | + | 
3 | O=C(O)c1ccc(O)c(O)c1 [Protocatechuic acid, 3,4-Dihydroxybenzoic acid] |  |  |  |  | + |  |  |  | 
4 | COc1cc(CCC(=O)O)ccc1O [Dihydroferulic acid, 3-(4-Hydroxy-3-methoxyphenyl)propionic acid] |  | 78% | 78% | 10% | + |  |  |  | Percentage of Digesta Value, B (2 h) (Caco-2 cells; listed as dihydroferulic acid): 10–15% and 15%
5 | O=C(O)c1cccc(O)c1 [3-Hydroxybenzoic acid] |  | 100% | 50% | 5% | + |  |  |  | Percentage of Basolateral Value, B (5 h) (HepG2 cells; PRPE digesta, basolateral chamber after 3 h with HepG2 cells alone (t = 5 h), relative to basolateral value at 2 h, listed as 3-hydroxybenzoic acid): unchanged; Percentage of Digesta Value, B (2 h) (Caco-2 cells; listed as 3-hydroxybenzoic acid): 3–5%
6 | C[C@@H]1O[C@@H](OC[C@H]2O[C@@H](Oc3c(-c4ccc(O)c(O)c4)oc4cc(O)cc(O)c4c3=O)[C@H](O)[C@@H](O)[C@@H]2O)[C@H](O)[C@H](O)[C@H]1O [Rutin, Quercetin-3-O-rutinoside] |  |  |  |  | + |  |  |  | 
7 | O=C(O)CCc1cccc(O)c1 [3-Hydroxyphenylpropionic acid, 3-(3-Hydroxyphenyl)propionic acid] | 2.3 fold | 233% | 69% | 4% | + | - | 90% | - | Percentage of Basolateral Value, B (5 h) (HepG2 cells; PRPE digesta, basolateral chamber after 3 h with HepG2 cells alone (t = 5 h), relative to basolateral value at 2 h, listed as 3-hydroxyphenylpropionic acid): 160–370%; Percentage of Digesta Value, B (2 h) (Caco-2 cells; listed as 3-hydroxyphenylpropionic acid): 3–5%
8 | O=C(O)CCc1ccc(O)c(O)c1 [Dihydrocaffeic acid, 3-(3′,4′-Dihydroxyphenyl)propionic acid] | three-fold increase | 338% | 67% | 15% | + | 123% | 26% | 26% | Percentage of Basolateral Value, B (5 h) (HepG2 cells; PRPE digesta, basolateral chamber after 3 h with HepG2 cells alone (t = 5 h), relative to basolateral value at 2 h, listed as dihydrocaffeic acid): 160–370%; Permeability across Caco-2 cells [2]: 0.5%; Percentage of Digesta Value, B (2 h) (Caco-2 cells; listed as dihydrocaffeic acid): 10–15% and 10%
9 | O=C(O)C=Cc1ccccc1 [Cinnamic acid, 3-Phenylprop-2-enoic acid] |  |  |  |  | + |  |  |  | 
10 | O=C(O)/C=C/c1ccc(O)cc1 [Coumaric acid] | More than a two-fold increase | 212% | 68% | 3% | + |  |  |  | Percentage of Digesta Value, B (2 h) (Caco-2 cells; listed as coumaric acid): 3–5%
11 | O=C(O)CCc1ccccc1 [Phenylpropanoic acid] |  | - | 65% | - | + | - | 100% | - | Percentage of Digesta Value, A (2 h) (Caco-2 cells; listed as phenylpropanoic acid): 65–70%; Percentage of Digesta Value, B (2 h) (Caco-2 cells; listed as phenylpropanoic acid): not detected; also recorded: none of these three compounds were measurable
12 | O=C(O)Cc1cccc(O)c1 [3-Hydroxyphenylacetic acid] |  | - | 70% | - | + | - | 100% | - | Percentage of Digesta Value, A (2 h) (Caco-2 cells; [5]): 65–70%; Percentage of Digesta Value, B (2 h) (Caco-2 cells; [5]): not detected; also recorded: none of these three compounds were measurable
13 | COc1cc(C(=O)O)ccc1O [Vanillic acid, 4-Hydroxy-3-methoxybenzoic acid] |  |  |  |  | + |  |  |  | 
